{
  "source": "paper PMC4967029",
  "about": "(Drug testing and analysis, 2015)",
  "key": {"[1]": {"conditions": "for time of peak in saliva post-chewing: after one serving of betel nut/quid, n=4; for detected in saliva above the limit of detection up to (time after chewing): all participants"}, "[2]": {"experiment": "Stability study of betel alkaloid standards in MeOH, HCl and NaOH at 45°C", "type": "physicochemical", "conditions": "1N NaOH; for fate of the carboxylic acids in basic conditions: after 24 h"}, "[3]": {"experiment": "Urine time course of betel biomarkers after betel chewing", "conditions": "for return to baseline levels in urine (time post-chewing) / time of peak in urine post-chewing: participant 1"}, "[4]": {"conditions": "cited from earlier work; for elimination half-life (t1/2): human urine"}, "[5]": {"conditions": "after infusion; cited from earlier work"}, "[6]": {"experiment": "Hair analysis for betel related compounds", "type": "in vivo, human", "conditions": "for levels in hair: hair sample from a tobacco consumer"}},
  "note": "Like-named read-outs stand apart in the source and are kept apart here.",
  "data": [
    {"smiles": "COC(=O)C1=CCCNC1", "note": "[guvacoline]", "values": [
      {"measurement": "return to baseline levels in saliva (time post-chewing)", "setting": "[1]; saliva", "result": 8, "unit": "h"},
      {"measurement": "time of peak in saliva post-chewing", "setting": "[1]; saliva", "result": "≤ 2", "unit": "h"},
      {"measurement": "detected in saliva above the limit of detection up to (time after chewing)", "setting": "[1]; saliva", "result": "up to 8 h"},
      {"measurement": "stability in basic conditions", "setting": "[2]", "result": "not stable"},
      {"measurement": "time to hydrolysis to the carboxylic acid", "setting": "[2]", "result": "up to 1 hour"},
      {"measurement": "return to baseline levels in urine (time post-chewing)", "setting": "[3]", "result": "approximately 8 h"},
      {"measurement": "time of peak in urine post-chewing", "setting": "[3]", "result": "approximately 2 h"}
    ]},
    {"smiles": "C=CCc1ccc(OC)c(O)c1", "note": "[chavibetol]", "values": [
      {"measurement": "detection in saliva", "setting": "[1]; participant 2, who chewed exclusively betel nut", "result": "absence"},
      {"measurement": "detection in saliva", "setting": "[1]; participants 1, 3 and 4, who consumed Piper betle leaves in their BQ", "result": "detected"},
      {"measurement": "return to baseline levels in saliva (time post-chewing)", "setting": "[1]; saliva", "result": 2, "unit": "h"},
      {"measurement": "time of peak in saliva post-chewing", "setting": "[1]; saliva", "result": "0.5 to 1", "unit": "h"}
    ]},
    {"smiles": "COC(=O)C1=CCCN(C)C1", "note": "[arecoline]", "values": [
      {"measurement": "elimination half-life (t1/2)", "setting": "[4]", "result": 0.97, "unit": "h"},
      {"measurement": "return to baseline levels in saliva (time post-chewing)", "setting": "[1]; saliva", "result": 8, "unit": "h"},
      {"measurement": "time of peak in saliva post-chewing", "setting": "[1]; saliva", "result": "≤ 2", "unit": "h"},
      {"measurement": "detected in saliva above the limit of detection up to (time after chewing)", "setting": "[1]; saliva", "result": "up to 8 h"},
      {"measurement": "stability in basic conditions", "setting": "[2]", "result": "not stable"},
      {"measurement": "time to hydrolysis to the carboxylic acid", "setting": "[2]", "result": "up to 1 hour"},
      {"measurement": "return to baseline levels in urine (time post-chewing)", "setting": "[3]", "result": "approximately 8 h"},
      {"measurement": "time of peak in urine post-chewing", "setting": "[3]", "result": "approximately 2 h"},
      {"measurement": "disappearance of arecoline from plasma", "setting": "[5]", "result": "≥ 15", "unit": "min"}
    ]},
    {"smiles": "CN1CCCC(C(=O)O)C1", "note": "(stereo not shown) [NMNA, N-methylnipecotic acid]", "values": [
      {"measurement": "elimination half-life (t1/2)", "setting": "[4]", "result": 7.9, "unit": "h"},
      {"measurement": "urinary NMNA excretion", "setting": "[4]; subjects consumed water extracts of areca nuts", "result": 1298, "unit": "ng/mg creatinine"},
      {"measurement": "urinary excretion of NMNA relative to that of arecaidine", "setting": "[4]; urine", "result": "< 25", "unit": "%"},
      {"measurement": "detection in hair samples", "setting": "[6]; hair of participants who chewed betel nuts at least once daily for ½-2 h", "result": "could not detect"},
      {"measurement": "detection in saliva samples", "setting": "[1]; saliva, LC-MS", "result": "failed"},
      {"measurement": "detection in urine samples", "setting": "[3]; LC-MS", "result": "failed"}
    ]},
    {"smiles": "C=CCc1ccc(OC)c(OC2OC(C(=O)O)C(O)C(O)C2O)c1", "note": "(stereo not shown) [chavibetol glucuronide]", "values": [
      {"measurement": "return to baseline levels in urine (time post-chewing)", "setting": "[3]", "result": "approximately 8 h"},
      {"measurement": "time of peak in urine post-chewing", "setting": "[3]", "result": "approximately 2 h"}
    ]},
    {"smiles": "O=C(O)C1=CCCNC1", "note": "[guvacine]", "values": [
      {"measurement": "return to baseline levels in saliva (time post-chewing)", "setting": "[1]; saliva", "result": 8, "unit": "h"},
      {"measurement": "time of peak in saliva post-chewing", "setting": "[1]; saliva", "result": "≤ 2", "unit": "h"},
      {"measurement": "detected in saliva above the limit of detection up to (time after chewing)", "setting": "[1]; saliva", "result": "up to 8 h"},
      {"measurement": "fate of the carboxylic acids in basic conditions", "setting": "[2]", "result": "disappeared"},
      {"measurement": "return to baseline levels in urine (time post-chewing)", "setting": "[3]", "result": "approximately 8 h"},
      {"measurement": "time of peak in urine post-chewing", "setting": "[3]", "result": "approximately 2 h"}
    ]},
    {"smiles": "CN1C(=O)CC[C@H]1c1cccnc1", "note": "[cotinine]", "values": [
      {"measurement": "levels in hair", "setting": "[6]", "result": "high levels"}
    ]},
    {"smiles": "CN1CCC=C(C(=O)O)C1", "note": "[arecaidine]", "values": [
      {"measurement": "elimination half-life (t1/2)", "setting": "[4]", "result": 4.3, "unit": "h"},
      {"measurement": "return to baseline levels in saliva (time post-chewing)", "setting": "[1]; saliva", "result": 8, "unit": "h"},
      {"measurement": "time of peak in saliva post-chewing", "setting": "[1]; saliva", "result": "≤ 2", "unit": "h"},
      {"measurement": "detected in saliva above the limit of detection up to (time after chewing)", "setting": "[1]; saliva", "result": "up to 8 h"},
      {"measurement": "fate of the carboxylic acids in basic conditions", "setting": "[2]", "result": "disappeared"},
      {"measurement": "return to baseline levels in urine (time post-chewing)", "setting": "[3]", "result": "approximately 8 h"},
      {"measurement": "time of peak in urine post-chewing", "setting": "[3]", "result": "approximately 2 h"}
    ]},
    {"smiles": "CN1CCC[C@H]1c1cccnc1", "note": "[nicotine]", "values": [
      {"measurement": "levels in hair", "setting": "[6]", "result": "high levels"}
    ]}
  ]
}
